Data: patent publication US4551547A, “Biocidal 2-aryl-1, 3-cyclopentanedione enol ester compounds” (Union Carbide Corporation, priority 1983, dated 1985)
≈ marks a conversion by molar mass, not a printed value.

Legend:
[1] = tested on: Soybean; test: Post-emergent herbicidal test, soybean; type: in vivo; set-up: key: 1: no perceptible injury; 2: intermediate degrees of injury; 3: intermediate degrees of injury; 4: intermediate degrees of injury; 5: the plant was dead; conditions: 2500 parts per million, after ten days; for Post-emergent Herbicidal, Soybean: Table II; for Post Emergent Herbicidal, Soybean: Table III
Experimental: (§1) Suspensions of the test compounds were prepared by dissolving one gram of compound in 50 milliliters of acetone in which had been dissolved 0.1 gram (10 percent of the weight of compound) of an alkylphenoxyethanol sufactant, as an emulsifying or dispersing agent. The resulting solution was mixed into 160 milliliters of water to give roughly 200 milliliters of a suspension containing the compound in finely divided form. The thus prepared stock suspension contained 0.5 percent by weight of compound. The test concentrations employed in the tests described below were obtained by diluting the stock suspension with water. The test procedures were as follows:
(§2) Experiments were also conducted to determine the phytotoxicity of representative compositions with respect to healthy fresh plants. Solutions of the compounds were prepared as described above to provide a concentration of 2500 parts per million of the test compound. The test plants were sprayed in accordance with the procedure described above for the Mite Foliage Spray Test so as to deliver approximately 100 milliliters of test solutions to the leaves of each plant tested. The sprayed plants and controls were set aside for approximately one hour to allow the solutions to dry and were then placed in the greenhouse. After ten days the plants were visually inspected to determine the extent of foliage injury. A rating of 1 indicates no perceptible injury; 5 indicates the plant was dead and ratings of 2, 3 and 4 indicate intermediate degrees of injury based upon the number and extent to which leaves were injured.

[2] = tested on: two-spotted mite (adults and nymphal stages); test: Mite Foliage Spray Test (adults and nymphs); type: in vivo, Tetranychus urticae (Koch); set-up: key to Miticidal, Adult: A: Excellent Control; B: Partial Control; No Control; conditions: for Miticidal, Adult: Table II, mortality count after four days; for LC50: Tetranychus urticae, foliar, Table III, ppm required for a 50 percent kill of mites, read-out: Miticidal LD50, Adult
Experimental: Suspensions of the test compounds were prepared by dissolving one gram of compound in 50 milliliters of acetone in which had been dissolved 0.1 gram (10 percent of the weight of compound) of an alkylphenoxyethanol sufactant, as an emulsifying or dispersing agent. The resulting solution was mixed into 160 milliliters of water to give roughly 200 milliliters of a suspension containing the compound in finely divided form. The thus prepared stock suspension contained 0.5 percent by weight of compound. The test concentrations employed in the tests described below were obtained by diluting the stock suspension with water. The test procedures were as follows: Adults and nymphal stages of the two-spotted mite (Tetranychus urticae (Koch)), reared on Tender-green beam plants at 80±5° F. and 50±5 percent relative humidity, were the tests organisms. Infested leaves from a stock culture were placed of the primary leaves of two bean plants six to eight inches in height, growing in a two-and-a-half inch clay pot. 150-200 Mites, a sufficient number for testing, transferred from the excised leaves to the fresh plants in a period of twenty-four hours. Following the twenty-four hour transfer period, the excised leaves were removed from the infested plants. The test compounds were formulated by diluting the stock suspension with water to provide suspensions containing the desired amount of test compound per million parts of final formulation. The potted plants (one pot per compound) were placed on a revolving turntable and sprayed with 100-110 milliliters of tests compound formulation by use of a DeVilbis spray gun set at 40 psi, air pressure. This application, which lasted 30 seconds, was sufficient to wet the plants to run-off. As a control, 100-110 milliliters of a water solution containing acetone and emulsifier in the same concentrations as the test compound formulation, but containing no test compound, were also sprayed on infested plants. The sprayed plants were held at 80±5° F. and 50±5 percent relative humidity for four days, after which, a mortality count of motile forms was made on the leaves of the test plants. Any individual which was capable of locomotion upon prodding was considered living. In these tests the pesticidal activity of the compounds against mites and mite eggs was rated as follows: Tests were conducted in accordance with the procedures given at pages 17 to 21 supra. The results are expressed in the same manner as used in Table II, except with respect to miticidal activity. For mite adult and mite egg comparison purposes, results are given in parts per million (ppm) required for a 50 percent kill of mites or eggs, respectively.

[3] = tested on: Corn; test: Post-emergent herbicidal test, corn; type: in vivo; set-up: key: 1: no perceptible injury; 2: intermediate degrees of injury; 3: intermediate degrees of injury; 4: intermediate degrees of injury; 5: the plant was dead; conditions: 2500 parts per million, after ten days; for Post-emergent Herbicidal, Corn: Table II; for Post Emergent Herbicidal, Corn: Table III
Experimental: as §1, §2

[4] = tested on: Crabgrass; test: Preliminary herbicide seed germination test (pre-emergent), crabgrass; type: in vivo, Digitaria sanguinalis; set-up: key: 5: no seedling emerged; 4: few seedlings emerged and/or very severe stunting; 3: moderate reduction in stand and/or moderate stunting.; 2: very slight reduction in stand and/or slight stunting; 1: no injury, seedlings appear no different with respect to stand or growth than untreated controls; conditions: ten to twelve days after application
Experimental: as §1
The following seeds were used in this test:
Crabgrass--Digitaria sanguinalis
Two […] mixtures were prepared as follows:
Each of the above mixtures was rolled separately in 5 gallon containers for approximately one-half hour on ball mill to insure uniform mixing of seeds and soil. For each compound four 3-inch pots were filled with soil to within 11/2 inches of top of pots. To two of these pots were added 70 cc. of Mixture I. To the remaining 2 pots were added 70 cc. of Mixture II. The seed-soil mixture was tamped firmly, and the pots were removed to the greenhouse and watered lightly. About 2 hours after planting, 25 milliliters of the test formulation were added to one pot containing Mixture I and one pot containing Mixture II. An equal volume of a water solution containing acetone and an emulsifier in the same concentration as the herbicidal mixture but without the candidate herbicide was also added to each of the soil-seed mixtures. These pots are used as check or control units. The test compounds were formulated by diluting the stock suspension with water to obtain the desired concentration of the compound in parts per million of the final formulation. Each compound was tested at the same concentration. […] Ratings were made according to the following designations: […]

Row | SMILES | Post-emergent Herbicidal, Soybean [1] | Miticidal, Adult [2] | Post-emergent Herbicidal, Corn [3] | Pre-emergent Herbicidal, Crabgrass ([4]; Table II) | Post Emergent Herbicidal, Soybean [1] | LC50 [2] | Post Emergent Herbicidal, Corn [3] | Pre-emergent Herbicidal, Crabgrass ([4]; Table III)
1 | CC(=O)OC1=C(c2cc(C)ccc2C)C(=O)C2CCCCC12 (centres unmarked) [Compound 28] | 2 | A | 3 | 2 | – | – | – | –
2 | Cc1ccc(C)c(C2=C(OC(=O)C(C)C)C3CCCCC3C2=O)c1 (centres unmarked) [Compound 29] | 2 | A | 2 | 1 | – | – | – | –
3 | CCCCC(CC)C(=O)OC1=C(c2cc(C)ccc2C)C(=O)C2CCCCC12 (centres unmarked) [Compound 30, 3-(2-ethylhexanoyloxy)-2-(2',5'-dimethylphenyl)-4,5,6,7,8,9-hexahydro-2-indenone] | 1 | A | 2 | 1 | – | – | – | –
4 | Cc1ccc(C)c(C2=C(OC(=O)C(C)(C)C)C3CCCCC3C2=O)c1 (centres unmarked) [Compound 31] | 2 | A | 2 | 1 | – | – | – | –
5 | CCCCCCCCCC(=O)OC1=C(c2cc(C)ccc2C)C(=O)C2CCCCC12 (centres unmarked) [Compound 32] | 1 | A | 2 | 1 | – | – | – | –
6 | CCCCCCCCCCCCCCCC(=O)OC1=C(c2cc(C)ccc2C)C(=O)C2CCCCC12 (centres unmarked) [Compound 33] | 1 | A | 1 | 1 | – | – | – | –
7 | CCCCCCCCCC(=O)OC1=C(c2ccccc2C)C(=O)C2CCCCC12 (centres unmarked) [drawing 15] | – | – | – | – | 3 | 2 µg/mL (≈ 5.04 µM) | 5 | 3
8 | CCCCCCCCCCCCCCCC(=O)OC1=C(c2ccccc2C)C(=O)C2CCCCC12 (centres unmarked) [drawing 17] | – | – | – | – | 2 | 20 µg/mL (≈ 41.6 µM) | 2 | 3
9 | CCCCCCCCCC(=O)OC1=C(c2cc(C)ccc2C)C(=O)C2CCCCC12 (centres unmarked) [drawing 19] | – | – | – | – | 1 | 25 µg/mL (≈ 60.9 µM) | 2 | 1
10 | CCCCC(CC)C(=O)OC1=C(c2ccccc2C)C(=O)CC1 (centres unmarked) [drawing 21] | – | – | – | – | 2 | 220 µg/mL (≈ 700 µM) | 2 | 3
11 | CCCCC(CC)C(=O)OC1=C(c2ccccc2C)C(=O)C2CCCCC12 (centres unmarked) [drawing 22] | – | – | – | – | 2 | 7 µg/mL (≈ 19 µM) | 5 | 2
12 | Cc1ccccc1C1=C(OC(=O)C(C)(C)C)C2CCCCC2C1=O (centres unmarked) [drawing 24] | – | – | – | – | 3 | 15 µg/mL (≈ 46 µM) | 5 | 3
13 | CCCCCCCCCC(=O)OC1=C(c2ccccc2C)C(=O)c2ccccc21 [reference compound] | – | – | – | – | 0 | 500 µg/mL (≈ 1280 µM) | 1 | 1
14 | CCCCCCCCCCCCCCCC(=O)OC1=C(c2ccccc2C)C(=O)c2ccccc21 [reference compound] | – | – | – | – | 0 | 500 µg/mL (≈ 1050 µM) | 1 | 1
15 | CCCCCCCCCC(=O)OC1=C(c2cc(C)ccc2C)C(=O)c2ccccc21 [reference compound] | – | – | – | – | 0 | 500 µg/mL (≈ 1240 µM) | 1 | 1
16 | CCCCC(CC)C(=O)OC1=C(c2ccccc2C)C(=O)c2ccccc21 (centres unmarked) [reference compound] | – | – | – | – | 0 | 500 µg/mL (≈ 1380 µM) | 1 | 1
17 | Cc1ccccc1C1=C(OC(=O)C(C)(C)C)c2ccccc2C1=O [reference compound] | – | – | – | – | 0 | 100 µg/mL (≈ 312 µM) | 1 | 2
